From US9995734B2, “Human T cell line assay for evaluating the immunologic identity of glatiramer acetate preparations” (Mylan Inc., priority 2013, dated 2018)
Values joined by “and” are separate entries in the source; they are usually repeats but may differ in a detail not shown here. Equal entries are not always repeated.

Assays:
Format in all cases: cell-based, human
Donor 3 GMA T-Cell Lines = experiment: ATP proliferation assay (CellTiter Glo), Donor 3 GMA T-cell lines, incl. reactivity to non-canonical GA peptides; conditions: for Non-Canonical Peptide Non-Reactivity: proliferation <2 times no antigen control
Donor 3 COP T-Cell Lines = experiment: ATP proliferation assay (CellTiter Glo), Donor 3 COP T-cell lines, incl. reactivity to non-canonical GA peptides; conditions: for Non-Canonical Peptide Non-Reactivity: proliferation <2 times no antigen control
Donor 4 COP T-Cell Lines = experiment: ATP proliferation assay (CellTiter Glo), Donor 4 COP T-cell lines, incl. reactivity to non-canonical GA peptides; conditions: for Non-Canonical Peptide Non-Reactivity: proliferation <2 times no antigen control; for Proliferation (luminescent ATP assay), Mean: T-cell line 205-1F4, Day 71, autologous B-LCL

poly (Glu-Ala-Tyr; 1:1:1) [GAT 111]
Non-Canonical Peptide Non-Reactivity (Donor 3 GMA T-Cell Lines; 165-B5G): GAT 111
Non-Canonical Peptide Non-Reactivity (Donor 3 GMA T-Cell Lines; 165-C5G): GAT 111
Non-Canonical Peptide Non-Reactivity (Donor 3 GMA T-Cell Lines; 165-E7G): GAT 111
Non-Canonical Peptide Non-Reactivity (Donor 3 GMA T-Cell Lines; 165-E9G): GAT 111
Non-Canonical Peptide Non-Reactivity (Donor 3 GMA T-Cell Lines; 165-F5G): GAT 111
Non-Canonical Peptide Non-Reactivity (Donor 3 GMA T-Cell Lines; 165-F10G): GAT 111
Non-Canonical Peptide Non-Reactivity (Donor 3 GMA T-Cell Lines; 165-H11G): GAT 111
Nonreactive T-Cell Line (Donor 3 GMA T-Cell Lines; Donor 3 GMA lines, stimulation with the non-canonical GA peptide): 165-B5G (Donor 3) and 165-C5G (Donor 3) and 165-C8G (Donor 3) and 165-E7G (Donor 3) and 165-E9G (Donor 3) and 165-F5G (Donor 3) and 165-F10G (Donor 3) and 165-H11G (Donor 3)
Proliferation (luminescent ATP assay), Mean (Donor 3 GMA T-Cell Lines; T-cell line 165-05G, 1 μg/mL antigen, Day 50 of culturing, No Antigen Value 2149): 1778 RLU
Proliferation (luminescent ATP assay), Mean (Donor 3 GMA T-Cell Lines; T-cell line 165-05G, 3 μg/mL antigen, Day 50 of culturing, No Antigen Value 2149): 1661 RLU
Proliferation (luminescent ATP assay), Mean (Donor 3 GMA T-Cell Lines; T-cell line 165-05G, 10 μg/mL antigen, Day 50 of culturing, No Antigen Value 2149): 1569 RLU
Proliferation (luminescent ATP assay), Mean (Donor 3 GMA T-Cell Lines; T-cell line 165-05G, 30 μg/mL antigen, Day 50 of culturing, No Antigen Value 2149): 1449 RLU
Proliferation (luminescent ATP assay), Mean (Donor 3 GMA T-Cell Lines; T-cell line 165-B5G, 1.25 μg/mL antigen, Day 55 of culturing, No Antigen Value 846): 1005 RLU
Proliferation (luminescent ATP assay), Mean (Donor 3 GMA T-Cell Lines; T-cell line 165-B5G, 2.5 μg/mL antigen, Day 55 of culturing, No Antigen Value 846): 886 RLU
Proliferation (luminescent ATP assay), Mean (Donor 3 GMA T-Cell Lines; T-cell line 165-B5G, 5 μg/mL antigen, Day 55 of culturing, No Antigen Value 846): 947 RLU
Proliferation (luminescent ATP assay), Mean (Donor 3 GMA T-Cell Lines; T-cell line 165-B5G, 10 μg/mL antigen, Day 55 of culturing, No Antigen Value 846): 931 RLU
Proliferation (luminescent ATP assay), Mean (Donor 3 GMA T-Cell Lines; T-cell line 165-C5G, 1.25 μg/mL antigen, autologous B-LCL): 445 RLU
Proliferation (luminescent ATP assay), Mean (Donor 3 GMA T-Cell Lines; T-cell line 165-C5G, 2.5 μg/mL antigen, autologous B-LCL): 406 RLU
Proliferation (luminescent ATP assay), Mean (Donor 3 GMA T-Cell Lines; T-cell line 165-C5G, 5 μg/mL antigen, autologous B-LCL): 422 RLU
Proliferation (luminescent ATP assay), Mean (Donor 3 GMA T-Cell Lines; T-cell line 165-C5G, 10 μg/mL antigen, autologous B-LCL): 430 RLU
Proliferation (luminescent ATP assay), Mean (Donor 3 GMA T-Cell Lines; T-cell line 165-E7G, 1.25 μg/mL antigen, autologous B-LCL, Day 55): 1896 RLU
Proliferation (luminescent ATP assay), Mean (Donor 3 GMA T-Cell Lines; T-cell line 165-E7G, 2.5 μg/mL antigen, autologous B-LCL, Day 55): 2001 RLU
Proliferation (luminescent ATP assay), Mean (Donor 3 GMA T-Cell Lines; T-cell line 165-E7G, 5 μg/mL antigen, autologous B-LCL, Day 55): 1285 RLU
Proliferation (luminescent ATP assay), Mean (Donor 3 GMA T-Cell Lines; T-cell line 165-E7G, 10 μg/mL antigen, autologous B-LCL, Day 55): 2176 RLU
Proliferation (luminescent ATP assay), Mean (Donor 3 GMA T-Cell Lines; T-cell line 165-E9G, 1 μg/mL antigen, Day 50 of culturing, No Antigen Value 1742): 1528 RLU
Proliferation (luminescent ATP assay), Mean (Donor 3 GMA T-Cell Lines; T-cell line 165-E9G, 1.25 μg/mL antigen, autologous B-LCL): 154 RLU
Proliferation (luminescent ATP assay), Mean (Donor 3 GMA T-Cell Lines; T-cell line 165-E9G, 2.5 μg/mL antigen, autologous B-LCL): 240 RLU
Proliferation (luminescent ATP assay), Mean (Donor 3 GMA T-Cell Lines; T-cell line 165-E9G, 3 μg/mL antigen, Day 50 of culturing, No Antigen Value 1742): 1454 RLU
Proliferation (luminescent ATP assay), Mean (Donor 3 GMA T-Cell Lines; T-cell line 165-E9G, 5 μg/mL antigen, autologous B-LCL): 240 RLU
Proliferation (luminescent ATP assay), Mean (Donor 3 GMA T-Cell Lines; T-cell line 165-E9G, 10 μg/mL antigen, autologous B-LCL): 153 RLU
Proliferation (luminescent ATP assay), Mean (Donor 3 GMA T-Cell Lines; T-cell line 165-E9G, 30 μg/mL antigen, Day 50 of culturing, No Antigen Value 1742): 1301 RLU
Proliferation (luminescent ATP assay), Mean (Donor 3 GMA T-Cell Lines; T-cell line 165-E9G, 10 μpg/mL antigen, Day 50 of culturing, No Antigen Value 1742): 1462 RLU
Proliferation (luminescent ATP assay), Mean (Donor 3 GMA T-Cell Lines; T-cell line 165-F5G, 1.25 μg/mL antigen, autologous B-LCL): 139 RLU
Proliferation (luminescent ATP assay), Mean (Donor 3 GMA T-Cell Lines; T-cell line 165-F5G, 2.5 μg/mL antigen, autologous B-LCL): 121 RLU
Proliferation (luminescent ATP assay), Mean (Donor 3 GMA T-Cell Lines; T-cell line 165-F5G, 5 μg/mL antigen, autologous B-LCL): 142 RLU
Proliferation (luminescent ATP assay), Mean (Donor 3 GMA T-Cell Lines; T-cell line 165-F5G, 10 μg/mL antigen, autologous B-LCL): 122 RLU
Proliferation (luminescent ATP assay), Mean (Donor 3 GMA T-Cell Lines; T-cell line 165-F10G, 1 μg/mL antigen, Day 50 of culturing, No Antigen Value 3752): 3575 RLU
Proliferation (luminescent ATP assay), Mean (Donor 3 GMA T-Cell Lines; T-cell line 165-F10G, 1.25 μg/mL antigen, autologous B-LCL): 929 RLU
Proliferation (luminescent ATP assay), Mean (Donor 3 GMA T-Cell Lines; T-cell line 165-F10G, 2.5 μg/mL antigen, autologous B-LCL): 1342 RLU
Proliferation (luminescent ATP assay), Mean (Donor 3 GMA T-Cell Lines; T-cell line 165-F10G, 3 μg/mL antigen, Day 50 of culturing, No Antigen Value 3752): 2989 RLU
Proliferation (luminescent ATP assay), Mean (Donor 3 GMA T-Cell Lines; T-cell line 165-F10G, 5 μg/mL antigen, autologous B-LCL): 1091 RLU
Proliferation (luminescent ATP assay), Mean (Donor 3 GMA T-Cell Lines; T-cell line 165-F10G, 10 μg/mL antigen, Day 50 of culturing, No Antigen Value 3752): 2876 RLU
Proliferation (luminescent ATP assay), Mean (Donor 3 GMA T-Cell Lines; T-cell line 165-F10G, 10 μg/mL antigen, autologous B-LCL): 1054 RLU
Proliferation (luminescent ATP assay), Mean (Donor 3 GMA T-Cell Lines; T-cell line 165-F10G, 30 μg/mL antigen, Day 50 of culturing, No Antigen Value 3752): 2299 RLU
Proliferation (luminescent ATP assay), Mean (Donor 3 GMA T-Cell Lines; T-cell line 165-H11G, 1 μg/mL antigen, Day 50 of culturing, No Antigen Value 1485): 2448 RLU
Proliferation (luminescent ATP assay), Mean (Donor 3 GMA T-Cell Lines; T-cell line 165-H11G, 1.25 μg/mL antigen, autologous B-LCL): 49 RLU
Proliferation (luminescent ATP assay), Mean (Donor 3 GMA T-Cell Lines; T-cell line 165-H11G, 2.5 μg/mL antigen, autologous B-LCL): 320 RLU
Proliferation (luminescent ATP assay), Mean (Donor 3 GMA T-Cell Lines; T-cell line 165-H11G, 3 μg/mL antigen, Day 50 of culturing, No Antigen Value 1485): 2294 RLU
Proliferation (luminescent ATP assay), Mean (Donor 3 GMA T-Cell Lines; T-cell line 165-H11G, 5 μg/mL antigen, autologous B-LCL): 304 RLU
Proliferation (luminescent ATP assay), Mean (Donor 3 GMA T-Cell Lines; T-cell line 165-H11G, 10 μg/mL antigen, Day 50 of culturing, No Antigen Value 1485): 2102 RLU
Proliferation (luminescent ATP assay), Mean (Donor 3 GMA T-Cell Lines; T-cell line 165-H11G, 10 μg/mL antigen, autologous B-LCL): 336 RLU
Proliferation (luminescent ATP assay), Mean (Donor 3 GMA T-Cell Lines; T-cell line 165-H11G, 30 μg/mL antigen, Day 50 of culturing, No Antigen Value 1485): 1599 RLU
Non-Canonical Peptide Non-Reactivity (Donor 3 COP T-Cell Lines; 165-C4C): GAT 111
Non-Canonical Peptide Non-Reactivity (Donor 3 COP T-Cell Lines; 165-C7C): GAT 111
proliferation response to non-canonical peptides (Donor 3 COP T-Cell Lines; 165-E3C, separate experiment): did not react
Non-Canonical Peptide Non-Reactivity (Donor 3 COP T-Cell Lines; 165-F3C): GAT 111
Non-Canonical Peptide Non-Reactivity (Donor 3 COP T-Cell Lines; 165-F6C): GAT 111
Non-Canonical Peptide Non-Reactivity (Donor 3 COP T-Cell Lines; 165-U3C (so in the source)): GAT 111
Nonreactive T-Cell Line (Donor 3 COP T-Cell Lines; Donor 3 COP lines, stimulation with the non-canonical GA peptide): 165-C4C (Donor 3) and 165-C7C (Donor 3) and 165-E3C (Donor 3) and 165-F3C (Donor 3) and 165-F6C (Donor 3)
Proliferation (luminescent ATP assay), Mean (Donor 3 COP T-Cell Lines; T-cell line 165-C4C, 1 μg/mL antigen, Day 66 of culture, 0 μg/mL 1881): 2330
Proliferation (luminescent ATP assay), Mean (Donor 3 COP T-Cell Lines; T-cell line 165-C4C, 3 μg/mL antigen, Day 66 of culture, 0 μg/mL 1881): 2392
Proliferation (luminescent ATP assay), Mean (Donor 3 COP T-Cell Lines; T-cell line 165-C4C, 10 μg/mL antigen, Day 66 of culture, 0 μg/mL 1881): 2233
Proliferation (luminescent ATP assay), Mean (Donor 3 COP T-Cell Lines; T-cell line 165-C7C, 1.25 μg/mL antigen, autologous B-LCL): 273 RLU
Proliferation (luminescent ATP assay), Mean (Donor 3 COP T-Cell Lines; T-cell line 165-C7C, 2.5 μg/mL antigen, autologous B-LCL): 231 RLU
Proliferation (luminescent ATP assay), Mean (Donor 3 COP T-Cell Lines; T-cell line 165-C7C, 5 μg/mL antigen, autologous B-LCL): 224 RLU
Proliferation (luminescent ATP assay), Mean (Donor 3 COP T-Cell Lines; T-cell line 165-C7C, 10 μg/mL antigen, autologous B-LCL): 264 RLU
Proliferation (luminescent ATP assay), Mean (Donor 3 COP T-Cell Lines; T-cell line 165-F3C, 1 μg/mL antigen, Day 77 of culture, 0 μg/mL 1563): 2387
Proliferation (luminescent ATP assay), Mean (Donor 3 COP T-Cell Lines; T-cell line 165-F3C, 3 μg/mL antigen, Day 77 of culture, 0 μg/mL 1563): 2269
Proliferation (luminescent ATP assay), Mean (Donor 3 COP T-Cell Lines; T-cell line 165-F3C, 10 μg/mL antigen, Day 77 of culture, 0 μg/mL 1563): 1772
Proliferation (luminescent ATP assay), Mean (Donor 3 COP T-Cell Lines; T-cell line 165-F6C, 1.25 μg/mL antigen, Day 76 of culture, No Antigen value 517): 576
Proliferation (luminescent ATP assay), Mean (Donor 3 COP T-Cell Lines; T-cell line 165-F6C, 2.5 μg/mL antigen, Day 76 of culture, No Antigen value 517): 620
Proliferation (luminescent ATP assay), Mean (Donor 3 COP T-Cell Lines; T-cell line 165-F6C, 5 μg/mL antigen, Day 76 of culture, No Antigen value 517): 479
Proliferation (luminescent ATP assay), Mean (Donor 3 COP T-Cell Lines; T-cell line 165-F6C, 10 μg/mL antigen, Day 76 of culture, No Antigen value 517): 411
Non-Canonical Peptide Non-Reactivity (Donor 4 COP T-Cell Lines; 205-1F4): GAT 111
Non-Canonical Peptide Non-Reactivity (Donor 4 COP T-Cell Lines; 205-1H3): GAT 111
reactivity to non-canonical GA peptides (Donor 4 COP T-Cell Lines; 205-1H7, after seven stimulations, 0, 1, 10, 30 μg/mL): not
Non-Canonical Peptide Non-Reactivity (Donor 4 COP T-Cell Lines; 205-1H7): GAT 111
Non-Canonical Peptide Non-Reactivity (Donor 4 COP T-Cell Lines; 205-1H11): GAT 111
Nonreactive T-Cell Line (Donor 4 COP T-Cell Lines; Donor 4 COP lines, stimulation with the non-canonical GA peptide): 205-1F4 (Donor 4) and 205-1H3 (Donor 4) and 205-1H7 (Donor 4) and 205-1H11 (Donor 4)
Proliferation (luminescent ATP assay), Mean (Donor 4 COP T-Cell Lines; 1 μg/mL antigen): 2002
Proliferation (luminescent ATP assay), Mean (Donor 4 COP T-Cell Lines; 3 μg/mL antigen): 2163
Proliferation (luminescent ATP assay), Mean (Donor 4 COP T-Cell Lines; 10 μg/mL antigen): 2275
